Key:
Assay in all cases: KINOMEscan competition binding
Conditions in all cases: compound 1.0 µM
MUSK (human) = MUSK (human) (UniProt O15146)
PAK2 (human) = PAK2 (human) (UniProt Q13177)
EPHA3 (human) = EPHA3 (human) (UniProt P29320)
MAP2K6 (human) = MAP2K6 (human) (UniProt P52564)
[1] = test system: KIT (human), P10721 [V559D]
PIK3C2B (human) = PIK3C2B (human) (UniProt O00750)
TNIK (human) = TNIK (human) (UniProt Q9UKE5)
SNRK (human) = SNRK (human) (UniProt Q9NRH2)
MAP3K9 (human) = MAP3K9 (human) (UniProt P80192)
ERN1 (human) = ERN1 (human) (UniProt O75460)
[2] = test system: EGFR (human), P00533 [L861Q]
WEE1 (human) = WEE1 (human) (UniProt P30291)
CDK16 (human) = CDK16 (human) (UniProt Q00536)
BMX (human) = BMX (human) (UniProt P51813)
FLT4 (human) = FLT4 (human) (UniProt P35916)
FLT4 (human), sequence (P35916 whole entry, looked up): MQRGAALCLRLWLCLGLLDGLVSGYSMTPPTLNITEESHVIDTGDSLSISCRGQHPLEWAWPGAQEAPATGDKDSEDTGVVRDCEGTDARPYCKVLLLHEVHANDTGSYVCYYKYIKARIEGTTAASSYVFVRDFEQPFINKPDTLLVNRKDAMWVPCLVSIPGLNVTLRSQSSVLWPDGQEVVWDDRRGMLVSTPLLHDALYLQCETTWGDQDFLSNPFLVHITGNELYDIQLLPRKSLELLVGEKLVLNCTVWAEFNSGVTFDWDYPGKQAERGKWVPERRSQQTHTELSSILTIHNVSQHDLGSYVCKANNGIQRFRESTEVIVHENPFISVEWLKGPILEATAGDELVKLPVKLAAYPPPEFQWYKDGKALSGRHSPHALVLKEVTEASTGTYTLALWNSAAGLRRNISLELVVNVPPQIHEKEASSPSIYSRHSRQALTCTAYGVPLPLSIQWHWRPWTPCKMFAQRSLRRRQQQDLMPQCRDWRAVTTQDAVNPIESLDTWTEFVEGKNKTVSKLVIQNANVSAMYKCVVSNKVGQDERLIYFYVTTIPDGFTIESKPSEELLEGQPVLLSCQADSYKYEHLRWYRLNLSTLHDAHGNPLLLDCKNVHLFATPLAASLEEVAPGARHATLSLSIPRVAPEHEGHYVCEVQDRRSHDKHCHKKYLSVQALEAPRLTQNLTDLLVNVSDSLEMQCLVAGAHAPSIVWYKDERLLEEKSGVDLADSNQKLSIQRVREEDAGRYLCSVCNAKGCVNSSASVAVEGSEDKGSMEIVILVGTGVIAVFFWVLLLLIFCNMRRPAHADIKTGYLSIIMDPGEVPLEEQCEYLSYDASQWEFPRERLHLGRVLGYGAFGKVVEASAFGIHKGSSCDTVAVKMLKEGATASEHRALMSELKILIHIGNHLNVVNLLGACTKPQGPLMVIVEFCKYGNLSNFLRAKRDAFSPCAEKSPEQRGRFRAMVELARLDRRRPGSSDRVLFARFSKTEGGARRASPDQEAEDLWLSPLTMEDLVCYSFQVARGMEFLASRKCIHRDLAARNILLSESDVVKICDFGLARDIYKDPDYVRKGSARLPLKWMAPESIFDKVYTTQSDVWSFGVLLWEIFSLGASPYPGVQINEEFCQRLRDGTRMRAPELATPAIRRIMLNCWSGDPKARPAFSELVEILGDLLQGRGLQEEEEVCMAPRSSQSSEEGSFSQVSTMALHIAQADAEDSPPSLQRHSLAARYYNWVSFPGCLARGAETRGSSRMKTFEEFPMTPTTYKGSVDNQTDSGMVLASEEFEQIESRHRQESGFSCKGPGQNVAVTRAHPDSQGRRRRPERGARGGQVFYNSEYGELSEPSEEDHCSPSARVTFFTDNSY

NEK6 (human) = NEK6 (human) (UniProt Q9HC98)
MAPK9 (human) = MAPK9 (human) (UniProt P45984)
TNNI3K (human) = TNNI3K (human) (UniProt Q59H18)
MAP4K2 (human) = MAP4K2 (human) (UniProt Q12851)
CaMK1 (human) = CaMK1 (human) (UniProt Q14012)
CSNK1G2 (human) = CSNK1G2 (human) (UniProt P78368)
CDK13 (human) = CDK13 (human) (UniProt Q14004)
MAP3K1 (human) = MAP3K1 (human) (UniProt Q13233)
MAPK12 (human) = MAPK12 (human) (UniProt P53778)
MAPK12 (human), sequence (P53778 whole entry, looked up): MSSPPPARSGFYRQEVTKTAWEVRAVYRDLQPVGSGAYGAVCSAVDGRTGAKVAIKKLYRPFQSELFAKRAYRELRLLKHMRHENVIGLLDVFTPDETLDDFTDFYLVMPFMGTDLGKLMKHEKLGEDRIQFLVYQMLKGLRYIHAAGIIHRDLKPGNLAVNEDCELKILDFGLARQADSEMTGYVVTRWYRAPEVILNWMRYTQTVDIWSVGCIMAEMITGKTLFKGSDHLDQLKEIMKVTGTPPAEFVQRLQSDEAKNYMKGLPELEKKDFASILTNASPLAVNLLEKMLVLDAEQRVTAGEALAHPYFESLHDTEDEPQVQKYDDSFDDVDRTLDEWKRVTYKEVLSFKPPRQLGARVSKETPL

CSNK1A1L (human) = CSNK1A1L (human) (UniProt Q8N752)
MST4 (human) = MST4 (human) (UniProt Q9P289)
TTK (human) = TTK (human) (UniProt P33981)
TAOK3 (human) = TAOK3 (human) (UniProt Q9H2K8)
[3] = test system: FLT3 (human), P36888 [K663Q]
FGFR2 (human) = FGFR2 (human) (UniProt P21802)
[4] = biological target: JAK1 JH1 catalytic (human) (UniProt P23458)
NEK1 (human) = NEK1 (human) (UniProt Q96PY6)
ROS1 (human) = ROS1 (human) (UniProt P08922)
TIE1 (human) = TIE1 (human) (UniProt P35590)
TAOK1 (human) = TAOK1 (human) (UniProt Q7L7X3)
[5] = test system: BRAF (human), P15056 [V600E]
BRAF (human), P15056 [V600E], sequence (P15056 whole entry V600E, looked up): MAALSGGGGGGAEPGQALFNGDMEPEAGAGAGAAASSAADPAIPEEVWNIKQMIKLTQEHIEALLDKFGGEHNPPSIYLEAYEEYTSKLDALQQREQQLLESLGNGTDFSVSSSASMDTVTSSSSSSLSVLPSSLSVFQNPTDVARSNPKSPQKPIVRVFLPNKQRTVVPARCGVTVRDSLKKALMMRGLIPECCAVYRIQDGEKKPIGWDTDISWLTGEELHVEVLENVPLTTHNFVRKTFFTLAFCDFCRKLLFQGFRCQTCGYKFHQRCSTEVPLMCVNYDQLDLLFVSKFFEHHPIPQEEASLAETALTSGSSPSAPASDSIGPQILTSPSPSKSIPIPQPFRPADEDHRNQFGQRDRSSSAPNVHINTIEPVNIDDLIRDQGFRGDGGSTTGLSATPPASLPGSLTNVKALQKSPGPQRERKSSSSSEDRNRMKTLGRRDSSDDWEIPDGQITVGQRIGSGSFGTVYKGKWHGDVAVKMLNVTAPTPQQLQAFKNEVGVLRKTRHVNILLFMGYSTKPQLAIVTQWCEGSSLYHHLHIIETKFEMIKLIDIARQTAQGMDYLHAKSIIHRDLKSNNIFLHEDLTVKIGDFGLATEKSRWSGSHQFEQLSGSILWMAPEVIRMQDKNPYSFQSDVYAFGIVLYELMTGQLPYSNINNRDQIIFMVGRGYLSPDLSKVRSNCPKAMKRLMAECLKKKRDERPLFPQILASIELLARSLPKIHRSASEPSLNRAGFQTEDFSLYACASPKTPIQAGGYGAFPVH

BMPR1A (human) = BMPR1A (human) (UniProt P36894)
MAP4K3 (human) = MAP4K3 (human) (UniProt Q8IVH8)
STK17B (human) = STK17B (human) (UniProt O94768)
EPHA5 (human) = EPHA5 (human) (UniProt P54756)
EPHA4 (human) = EPHA4 (human) (UniProt P54764)
EPHA4 (human), sequence (P54764 whole entry, looked up): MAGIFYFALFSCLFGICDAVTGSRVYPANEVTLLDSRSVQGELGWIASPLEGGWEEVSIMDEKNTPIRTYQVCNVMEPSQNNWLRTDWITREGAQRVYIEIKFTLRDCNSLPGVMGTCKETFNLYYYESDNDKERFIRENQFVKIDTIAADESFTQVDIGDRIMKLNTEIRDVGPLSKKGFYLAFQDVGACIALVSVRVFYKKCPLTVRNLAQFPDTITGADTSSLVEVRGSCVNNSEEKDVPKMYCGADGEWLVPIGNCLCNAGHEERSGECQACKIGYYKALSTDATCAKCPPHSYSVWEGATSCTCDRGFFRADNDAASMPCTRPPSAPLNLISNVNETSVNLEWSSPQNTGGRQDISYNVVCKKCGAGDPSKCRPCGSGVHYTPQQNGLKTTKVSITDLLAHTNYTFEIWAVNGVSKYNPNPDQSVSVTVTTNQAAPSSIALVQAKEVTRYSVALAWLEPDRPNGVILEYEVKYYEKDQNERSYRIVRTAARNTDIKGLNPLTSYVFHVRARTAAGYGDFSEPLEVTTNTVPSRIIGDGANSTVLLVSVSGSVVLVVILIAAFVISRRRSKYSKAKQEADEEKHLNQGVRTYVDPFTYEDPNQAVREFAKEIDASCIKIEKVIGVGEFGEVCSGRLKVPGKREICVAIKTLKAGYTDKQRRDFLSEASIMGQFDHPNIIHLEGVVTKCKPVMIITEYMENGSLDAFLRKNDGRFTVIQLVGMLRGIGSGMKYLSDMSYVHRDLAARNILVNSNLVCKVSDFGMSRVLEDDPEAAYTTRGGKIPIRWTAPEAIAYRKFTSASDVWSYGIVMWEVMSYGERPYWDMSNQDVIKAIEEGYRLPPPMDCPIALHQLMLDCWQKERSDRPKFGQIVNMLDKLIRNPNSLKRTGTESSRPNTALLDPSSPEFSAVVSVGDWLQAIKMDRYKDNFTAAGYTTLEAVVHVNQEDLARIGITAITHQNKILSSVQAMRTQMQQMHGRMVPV

RIOK1 (human) = RIOK1 (human) (UniProt Q9BRS2)
RIOK1 (human), sequence (Q9BRS2 whole entry, looked up): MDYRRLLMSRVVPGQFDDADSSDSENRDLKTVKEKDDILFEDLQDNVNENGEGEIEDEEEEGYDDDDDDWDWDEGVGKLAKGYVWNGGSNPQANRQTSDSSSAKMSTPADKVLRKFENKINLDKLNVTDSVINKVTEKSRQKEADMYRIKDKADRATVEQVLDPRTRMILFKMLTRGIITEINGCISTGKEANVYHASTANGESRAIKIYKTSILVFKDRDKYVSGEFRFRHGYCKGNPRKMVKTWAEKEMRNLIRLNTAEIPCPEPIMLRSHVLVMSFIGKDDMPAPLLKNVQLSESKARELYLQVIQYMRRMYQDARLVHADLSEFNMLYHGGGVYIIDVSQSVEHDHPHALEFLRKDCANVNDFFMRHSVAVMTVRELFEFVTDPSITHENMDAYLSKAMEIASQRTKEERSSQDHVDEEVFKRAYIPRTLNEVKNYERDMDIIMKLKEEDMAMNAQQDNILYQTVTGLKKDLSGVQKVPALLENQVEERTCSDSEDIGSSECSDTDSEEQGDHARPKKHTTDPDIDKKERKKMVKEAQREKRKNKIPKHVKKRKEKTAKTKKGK

CLK2 (human) = CLK2 (human) (UniProt P49760)

KIT (human), P10721 [V559D], sequence (P10721 whole entry V559D, looked up): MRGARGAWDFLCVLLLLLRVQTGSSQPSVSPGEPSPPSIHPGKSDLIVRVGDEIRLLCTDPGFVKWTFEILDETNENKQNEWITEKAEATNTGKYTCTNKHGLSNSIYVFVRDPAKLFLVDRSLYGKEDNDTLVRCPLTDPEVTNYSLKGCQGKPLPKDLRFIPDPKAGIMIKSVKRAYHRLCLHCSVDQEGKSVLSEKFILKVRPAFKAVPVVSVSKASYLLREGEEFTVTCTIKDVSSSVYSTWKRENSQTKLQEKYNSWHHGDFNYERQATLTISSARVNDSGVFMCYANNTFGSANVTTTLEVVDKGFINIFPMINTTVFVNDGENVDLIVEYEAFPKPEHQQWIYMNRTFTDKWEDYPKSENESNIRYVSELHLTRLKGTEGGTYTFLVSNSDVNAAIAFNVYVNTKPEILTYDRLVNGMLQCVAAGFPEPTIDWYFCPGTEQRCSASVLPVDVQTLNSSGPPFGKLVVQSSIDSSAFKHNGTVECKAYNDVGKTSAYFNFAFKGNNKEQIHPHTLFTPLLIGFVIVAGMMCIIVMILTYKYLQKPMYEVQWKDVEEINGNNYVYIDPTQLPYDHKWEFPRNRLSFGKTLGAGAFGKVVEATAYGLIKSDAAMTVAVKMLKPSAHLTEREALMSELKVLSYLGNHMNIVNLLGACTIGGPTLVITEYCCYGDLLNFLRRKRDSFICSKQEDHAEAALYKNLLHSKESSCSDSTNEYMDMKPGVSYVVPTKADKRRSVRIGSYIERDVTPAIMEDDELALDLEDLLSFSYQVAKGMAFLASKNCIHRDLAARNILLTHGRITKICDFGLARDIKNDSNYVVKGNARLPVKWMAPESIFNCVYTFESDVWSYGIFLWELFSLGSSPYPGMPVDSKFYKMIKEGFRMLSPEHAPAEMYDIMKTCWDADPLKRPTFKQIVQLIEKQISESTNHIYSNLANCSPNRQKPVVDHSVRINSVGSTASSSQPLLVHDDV

SMILES: Cc1cc(NC(=O)c2cccc(NC(=O)/C=C/CN(C)C)c2)ccc1Nc1nccc(-c2cccnc2)n1
- kinase still bound, per cent of control (MUSK (human)): 100%
- kinase still bound, per cent of control (PAK2 (human)): 100%
- kinase still bound, per cent of control (EPHA3 (human)): 67%
- kinase still bound, per cent of control (MAP2K6 (human)): 95%
- kinase still bound, per cent of control [1]: 0.95%
- kinase still bound, per cent of control (PIK3C2B (human)): 100%
- kinase still bound, per cent of control (TNIK (human)): 56%
- kinase still bound, per cent of control (SNRK (human)): 100%
- kinase still bound, per cent of control (MAP3K9 (human)): 100%
- kinase still bound, per cent of control (ERN1 (human)): 73%
- kinase still bound, per cent of control [2]: 100%
- kinase still bound, per cent of control (WEE1 (human)): 100%
- kinase still bound, per cent of control (CDK16 (human)): 100%
- kinase still bound, per cent of control (BMX (human)): 100%
- kinase still bound, per cent of control (FLT4 (human)): 100%
- kinase still bound, per cent of control (NEK6 (human)): 100%
- kinase still bound, per cent of control (MAPK9 (human)): 0%
- kinase still bound, per cent of control (TNNI3K (human)): 100%
- kinase still bound, per cent of control (MAP4K2 (human)): 67%
- kinase still bound, per cent of control (CaMK1 (human)): 81%
- kinase still bound, per cent of control (CSNK1G2 (human)): 73%
- kinase still bound, per cent of control (CDK13 (human)): 100%
- kinase still bound, per cent of control (MAP3K1 (human)): 100%
- kinase still bound, per cent of control (MAPK12 (human)): 100%
- kinase still bound, per cent of control (CSNK1A1L (human)): 71%
- kinase still bound, per cent of control (MST4 (human)): 82%
- kinase still bound, per cent of control (TTK (human)): 46%
- kinase still bound, per cent of control (TAOK3 (human)): 66%
- kinase still bound, per cent of control [3]: 75%
- kinase still bound, per cent of control (FGFR2 (human)): 79%
- kinase still bound, per cent of control [4]: 98%
- kinase still bound, per cent of control (NEK1 (human)): 81%
- kinase still bound, per cent of control (ROS1 (human)): 90%
- kinase still bound, per cent of control (TIE1 (human)): 91%
- kinase still bound, per cent of control (TAOK1 (human)): 67%
- kinase still bound, per cent of control [5]: 100%
- kinase still bound, per cent of control (BMPR1A (human)): 100%
- kinase still bound, per cent of control (MAP4K3 (human)): 100%
- kinase still bound, per cent of control (STK17B (human)): 72%
- kinase still bound, per cent of control (EPHA5 (human)): 100%
- kinase still bound, per cent of control (EPHA4 (human)): 100%
- kinase still bound, per cent of control (RIOK1 (human)): 100%
- kinase still bound, per cent of control (CLK2 (human)): 95%

SMILES: CN(C)C/C=C/C(=O)Nc1cccc(C(=O)Nc2ccc(Nc3nccc(-c4c(-c5ccccc5)nn5ccccc45)n3)cc2)c1
- kinase still bound, per cent of control (MUSK (human)): 100%
- kinase still bound, per cent of control (PAK2 (human)): 88%
- kinase still bound, per cent of control (EPHA3 (human)): 65%
- kinase still bound, per cent of control (MAP2K6 (human)): 56%
- kinase still bound, per cent of control [1]: 0.6%
- kinase still bound, per cent of control (PIK3C2B (human)): 100%
- kinase still bound, per cent of control (TNIK (human)): 27%
- kinase still bound, per cent of control (SNRK (human)): 100%
- kinase still bound, per cent of control (MAP3K9 (human)): 59%
- kinase still bound, per cent of control (ERN1 (human)): 100%
- kinase still bound, per cent of control [2]: 0.75%
- kinase still bound, per cent of control (WEE1 (human)): 100%
- kinase still bound, per cent of control (CDK16 (human)): 100%
- kinase still bound, per cent of control (BMX (human)): 76%
- kinase still bound, per cent of control (FLT4 (human)): 7.8%
- kinase still bound, per cent of control (NEK6 (human)): 100%
- kinase still bound, per cent of control (MAPK9 (human)): 0%
- kinase still bound, per cent of control (TNNI3K (human)): 100%
- kinase still bound, per cent of control (MAP4K2 (human)): 90%
- kinase still bound, per cent of control (CaMK1 (human)): 100%
- kinase still bound, per cent of control (CSNK1G2 (human)): 0.85%
- kinase still bound, per cent of control (CDK13 (human)): 100%
- kinase still bound, per cent of control (MAP3K1 (human)): 96%
- kinase still bound, per cent of control (MAPK12 (human)): 94%
- kinase still bound, per cent of control (CSNK1A1L (human)): 5.5%
- kinase still bound, per cent of control (MST4 (human)): 85%
- kinase still bound, per cent of control (TTK (human)): 94%
- kinase still bound, per cent of control (TAOK3 (human)): 42%
- kinase still bound, per cent of control [3]: 12%
- kinase still bound, per cent of control (FGFR2 (human)): 49%
- kinase still bound, per cent of control [4]: 89%
- kinase still bound, per cent of control (NEK1 (human)): 100%
- kinase still bound, per cent of control (ROS1 (human)): 100%
- kinase still bound, per cent of control (TIE1 (human)): 23%
- kinase still bound, per cent of control (TAOK1 (human)): 40%
- kinase still bound, per cent of control [5]: 21%
- kinase still bound, per cent of control (BMPR1A (human)): 66%
- kinase still bound, per cent of control (MAP4K3 (human)): 59%
- kinase still bound, per cent of control (STK17B (human)): 100%
- kinase still bound, per cent of control (EPHA5 (human)): 98%
- kinase still bound, per cent of control (EPHA4 (human)): 89%
- kinase still bound, per cent of control (RIOK1 (human)): 100%
- kinase still bound, per cent of control (CLK2 (human)): 90%
